From patent US9253987B2, “Antimicrobial agents and methods of use” (Hyprotek, Inc., priority 2010, dated 2016) come the findings set out here.

The assay concerns leukoplakia lesions within the oral cavity displaying invasive squamous cell carcinoma. Briefly: Topical treatment of oral leukoplakia / squamous cell carcinoma lesion in a human subject. In kind it is in vivo. Particulars: same human subject, before the antimicrobial agent. From the text: In addition to the being diagnosed with chronic periodontitis, the subject developed leukoplakia lesions within the oral cavity displaying invasive squamous cell carcinoma with surrounding carcinoma-in-situ and dysplasia in the right mandibular gingival area. Visual inspection of the lesions appeared as white, translucent patches. […] Previously, the subject's dentists had attempted to treat the chronic periodontitis and leukoplakia with a succession of oral antibiotics, antifungal fluconazole and prolonged courses of chlorhexidine oral rinses, in addition to vigorous dental hygiene.
A single topical application of the antimicrobial agent of the present application in solution form was applied to the right lower mandibular gingival area while the right upper mandibular gingival area remained untreated. Visual inspection of the antimicrobial agent-treated area produced noticeable reduction in both the size and severity of the lesion within approximately 10 hours. Continued daily or twice-daily applications of the antimicrobial agent solution to the right lower mandibular gingival area over 12 days were effective to further reduce the lesion to approximately 1 mm. […] In contrast, the pathology of the untreated right upper mandibular gingival area continued to display signs of invasive squamous cell carcinoma and was only finally removed by surgery post treatment.

As for `[H]/N=C(\N/C(=N/[H])NCCCCCCNC(=N)NC(=N)Nc1ccc(Cl)cc1)Nc1ccc(Cl)cc1` [chlorhexidine], the “outcome of previous therapy of chronic periodontitis and leukoplakia” value is “failed significantly to improve their condition”.
Consider `OC(Cn1cncn1)(Cn1cncn1)c1ccc(F)cc1F` [fluconazole], for which the “outcome of previous therapy of chronic periodontitis and leukoplakia” value was “failed significantly to improve their condition”.
